Data on three molecules can be found in paper PMC12054364, “Structure of the Fab fragment of a humanized 5E5 antibody to a cancer-specific Tn-MUC1 epitope” (Acta Crystallographica Section D: Structural Biology, 2025).

By Kd is commonly meant the equilibrium constant for the complex coming apart. Lower therefore signals tighter binding.

Ends that are not written are not given here. * marks the point of attachment. αGalNAc = CC(=O)N[C@@H]1[C@@H](O)[C@@H](O)[C@@H](CO)O[C@@H]1*

One assay deals with h-5E5 Fab. As to the kind of experiment: SPR binding of doubly glycosylated Tn-MUC1 peptides to immobilized h-5E5 Fab. Also noted: species or system humanized. On the procedure:
(§1) The binding kinetics of the h-5E5 Fab to doubly glycosylated Tn-MUC1 peptides were studied by surface plasmon resonance (SPR) using a Biacore T200 instrument (GE Healthcare). All experiments were performed at 25°C with HBS-EP (10 mM HEPES, 150 mM NaCl, 3 mM EDTA, 0.005% Tween 20 pH 7.4) as the running buffer. The purified h-5E5 Fab and an irrelevant 1104 Fab were immobilized [∼10 000 resonance units (RUs) each] on a Series S Sensor Chip CM7 (Cytiva) using an amine-coupling kit (Cytiva) in 10 mM acetate buffer pH 4.0 (Cytiva). Serial dilutions of doubly glycosylated Tn-MUC1 peptides in HBS-EP buffer were injected at a flow rate of 20 µl min^−1 over flow cells containing immobilized h-5E5 Fab and the 1104 Fab (as a negative control). The reference flow cell was blocked with ethanolamine. The association time was set to 30 s and the dissociation time to 60 s. After each run, the sensor chip was regenerated with HBS-EP buffer. The concentrations of the analytes injected were 6.25, 12.5, 25, 50 and 100 µM. The analytes were two doubly glycosylated Tn-MUC1 peptides, PAPGS*T*AP and APGS*T*AP, where * represents GalNAc. Reference flow cell subtracted sensorgrams were analyzed with BIAevaluation Software v.3.2 (Cytiva) and affinities were determined by steady-state analysis from three experimental replicates. PAPGS*T*AP binding to amine-coupled 5E5 mAb (∼25 000 RUs) was determined under the same conditions described for the Fab.
In general terms: In SPR one partner is held on a chip, and binding of the other changes the refractive index at the surface.

The test system of the next assay is 1104 Fab. Put plainly: SPR negative control: glycopeptides over immobilized irrelevant 1104 Fab. The assay is classed as binding. As to conditions: amine-coupled Fab 1104 (∼10 000 RU), peptide 6.25-100 µM, HBS-EP pH 7.4, 25°C. The method, then: as §1, with “The analytes were two doubly glycosylated Tn-MUC1 peptides, PAPGS*T*AP and APGS*T*AP, where * represents GalNAc.” left out

Another assay deals with h-5E5 mAb. Put plainly: SPR binding of PAPGS*T*AP to immobilized h-5E5 mAb. Also noted: species or system humanized. The conditions noted are these: amine-coupled mAb (∼25 000 RU), same conditions as for the Fab, steady-state. On the procedure:
as §1, with “The analytes were two doubly glycosylated Tn-MUC1 peptides, PAPGS*T*AP and APGS*T*AP, where * represents GalNAc.” left out

The target of assay [1] is Fab fragment of the humanized 5E5 antibody (h-5E5 Fab) (humanized from mouse | human) (UniProt P01834). Put plainly: SPR; Biacore T200; h-5E5 Fab amine-coupled (~10 000 RU) on a CM7 chip; glycopeptides flowed at 6.25-100 µM, 20 µl/min; 25°C; HBS-EP (10 mM HEPES, 150 mM NaCl, 3 mM EDTA, 0.005% Tween 20 pH 7.4); steady-state analysis, three replicates.
Assay [2] has as its target humanized 5E5 monoclonal antibody (h-5E5 mAb) (humanized from mouse | human) (UniProt P01834). Put plainly: SPR; 5E5 mAb amine-coupled (~25 000 RU); PAPGS*T*AP flowed; same conditions as for the Fab (25°C, HBS-EP); steady-state analysis.
Setting [3] is: immobilized h-5E5 Fab, HBS-EP pH 7.4, 25°C.

For “PAPGS*T*AP [doubly glycosylated Tn-MUC1 peptide, where * represents GalNAc]”, on h-5E5 Fab (Biacore T200, 25°C, HBS-EP (10 mM HEPES, 150 mM NaCl, 3 mM EDTA, 0.005% Tween 20 pH 7.4), Fab amine-coupled ∼10 000 RU on CM7 chip, peptide 6.25-100 µM, 20 µl/min, association 30 s, dissociation 60 s, steady-state analysis, three experimental replicates), binding was put at a Kd of 40.7 ± 0.1 µM. Moreover, in the assay on h-5E5 Fab (setting [3]), the “observed Rmax” value is listed as 165 RU and the “observed Rmax as % of the theoretical Rmax” value is 70%. For the same molecule, the “binding to control surface” value in the assay with 1104 Fab was “Neither glycopeptide bound to the control surface”. Binding at h-5E5 mAb was characterised by a dissociation constant (Kd) of 43.9 µM.

B1: doubly glycosylated Tn-MUC1 peptide APGS*T*AP (peptide)
peptide: APGS(αGalNAc)T(αGalNAc)AP
Turning to B1, the Kd in assay [1] is 60.9 µM.

B2: doubly glycosylated Tn-MUC1 peptide PAPGS*T*AP (peptide)
peptide: PAPGS(αGalNAc)T(αGalNAc)AP
Regarding B2, the Kd in assay [2] was determined as 43.9 µM; in assay [1], 40.7 µM.
